Data set [1] relates to Human RSV-A (“Long” strain). In words: RSV-A assay: inhibition of cytopathic effect in Hep-2 cells, ATPlite readout. It is filed as cell-based, Human respiratory syncytial virus (HRSV). Conditions: human respiratory syncytial virus, HEp-2, 120 h, read-out: Human RSV-A (“Long” strain) EC50. The procedure, abridged: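 Cytopathic-effect protection was read as ATP content (ATPlite luminescence) after a 5-day incubation. Setup: Hep-2 cells at 8,000 per well, RSV-A Long at MOI 0.1, 2-fold serial compound dilutions in duplicate. Cytotoxicity (CC50) was measured on an identical uninfected plate run in parallel.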
On the technique in general: Cytopathic effects are the visible damage that an infection or toxin causes in cultured cells.

Data set [2] is described as follows: Cytotoxicity on parallel plate without virus, ATPlite readout. Conditions: human, Hep-2 cells (no virus), Hep-2 cells without virus, 5-day incubation. It counts as cell-based. The procedure, abridged: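 Hep-2 cells, 8,000/well, received duplicate 2-fold compound dilutions with growth medium in place of virus. After 5 days, viability measured as ATP by ATPlite luminescence. CC50 reported in ranges: A>50 μM; B 10-50 μM; C<10 μM.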

Data set [3] has as its system RSV-B, genotype B, strain 9320. In words: RSV-B assay: A549 cells infected with RSV-B, qPCR or ATPlite readout. It counts as cell-based, Human respiratory syncytial virus (HRSV). Conditions: human respiratory syncytial virus, A549, read-out: Human RSV-B EC50. The text has this:
Hep-2 cells, (originally derived from tumors grown in irradiated-cortisonised weanling rats that had been injected with epidermoid carcinoma tissue from a person's larynx, but later found to be indistinguishable from HeLa cells by PCR DNA analysis), were used for the culturing of genotype B, strain 9320. Flasks were inoculated with RSV-B and viral stocks were collected once cytopathic effect (CPE) was greater than […]. Viral stocks in 25% o sucrose media were snap frozen using liquid nitrogen to increase viral stability. Viral stock titers were quantified by tissue culture infectious dose 50% o (TCID50) using 8,000 cells per well and 5-fold viral dilutions across a 96-well plate, cultured for 4 days. Viral stock titers were also quantified by a plaque forming unit assay, as described elsewhere.
The assay is run as follows: A549 cells (originally derived through explant culture from a person's carcinomatous lung tissue) are seeded into the inner 60 wells of a 96-well plate at 3,000 cells per well in a volume of 50 μL using A549 growth media (F-12K Media, 1% Penn/Strep, 1% nonessential amino acids, 10% heat-inactivated FBS). 2-fold serial dilutions of control and test compounds are added to the wells in duplicate in a total volume of 25 μL. Viral stock is then added to the wells at a multiplicity of infection (MOI) of 0.5 in a volume of 25 μL, bringing the total volume of each well to 100 μL. The MOI is calculated using the PFU/mL, or TCID50 if unavailable. Each 96-well plate has a control column of 6 wells with cells and virus but no compound (negative control, max CPE), a column with cells but no compound or virus (positive control, minimum CPE), and a column with no cells or virus or compound (background plate/reagent control). The control wells with cells but no virus are given an additional 25 uL of growth media containing an equal quantity of sucrose as those wells receiving the viral stock in order to keep consistent in media and volume conditions. The outer wells of the plate are filled with 125 μL of moat media (DMEM, 1% Penn/Strep) to act as a thermal and evaporative moat around the test wells. 6 days post infection, the plates are read using qPCR or ATP lite (50 uL added per well), which quantifies the amount of ATP (a measure of cell health) present in each well. Assay plates treated with APTlite are read using the Envision luminometer. […] EC50 ranges are as follows: A<0.4 μM; B 0.4-0.8 μM; C>0.8 μM.

With `O=C1Nc2ccccc2C(c2ccccc2)=N[C@@H]1Nc1nnc(-c2ccc(F)cc2)o1` [Example 7a], the EC50 was 400 to 800 nM in data set [1] and more than 800 nM in data set [3]. In data set [2], the 50% cytotoxic concentration (CC50) at 5 days is more than 50000 nM.
With `O=C1Nc2c(F)cccc2C(c2ccccc2)=N[C@@H]1Nc1nnc(-c2ccccc2N2CCOCC2)o1` [Example 355a], the EC50 in data set [1] and in data set [3] was less than 400 nM throughout.
As to `O=C1Nc2ccccc2C(c2ccccc2)=NC1Nc1nnc(-c2ccc(-n3cccn3)cc2)[nH]1` (stereo not drawn) [Example 364], the 50% effective concentration (EC50) in data set [1] was less than 400 nM; in data set [3], 400 to 800 nM.
In the same order, the values of `N#Cc1ccc(-c2ccc(NC3N=C(c4ccccc4)c4ccccc4NC3=O)nn2)cc1` (stereo not drawn) [Example 377] are less than 400 nM and less than 400 nM.
The corresponding values for `CCc1nc(-c2nnc(N[C@H]3N=C(c4ccccc4)c4ccccc4NC3=O)o2)c(N2CCOCC2)s1` [Example 385] are less than 400 nM and less than 400 nM.
The corresponding values for `O=C1Nc2ccccc2C(c2ccccc2)=N[C@@H]1Nc1nnc(-c2nc(C3CCC3)sc2N2CCOCC2)o1` [Example 387] are less than 400 nM and less than 400 nM.
As to `O=C1Nc2ccccc2C(c2ccccc2)=N[C@@H]1Nc1nnc(-c2nc(-c3cccnc3)sc2N2CCOCC2)o1` [Example 388], the EC50 in data set [1] and in data set [3] was less than 400 nM in each case.
Regarding `CC(C)n1cc(-c2nnc(N[C@H]3N=C(c4ccccc4)c4ccccc4NC3=O)o2)c(N2CCOCC2)n1` [Example 403], the concentration for a half-maximal effect (EC50) in data set [1] and in data set [3] was less than 400 nM each time.
As for `CC(F)(F)c1nc(-c2nnc(N[C@H]3N=C(c4ccccc4)c4ccccc4NC3=O)o2)c(N2CCOCC2)s1` [Example 407], the concentration giving a half-maximal response (EC50) in data set [1] and in data set [3] was less than 400 nM each time.
For the molecule `O=C1Nc2ccccc2C(c2ccccc2)=N[C@@H]1Nc1nnc(-c2nc(-c3ccncc3)sc2N2CCOCC2)o1` [Example 429], the EC50 in data set [1] and in data set [3] was less than 400 nM in each case.

A word on the EC50: it is the concentration needed to bring the measured effect to its halfway point. Broadly, the CC50 is the concentration that lowers cell viability or growth by half. Low values mean harm at low concentration, high ones better tolerance by the cells.

The record behind these values is US11390631B1, “Benzodiazepine derivatives as RSV inhibitors” (priority 2015, dated 2022).
